Experiments:
KCC2 = target: T1, KCC2 (Homo sapiens, UniProt Q9H2X9); assay: Surface biotinylation of KCC2 in HEK-293 cells; format: cell-based; settings: 15 min
T1 construct: expressed in transfected cells; host or cells: HEK-293 (ATCC CRL-1573)
T1 sequence (Q9H2X9 1-1116 isoform Q9H2X9-2): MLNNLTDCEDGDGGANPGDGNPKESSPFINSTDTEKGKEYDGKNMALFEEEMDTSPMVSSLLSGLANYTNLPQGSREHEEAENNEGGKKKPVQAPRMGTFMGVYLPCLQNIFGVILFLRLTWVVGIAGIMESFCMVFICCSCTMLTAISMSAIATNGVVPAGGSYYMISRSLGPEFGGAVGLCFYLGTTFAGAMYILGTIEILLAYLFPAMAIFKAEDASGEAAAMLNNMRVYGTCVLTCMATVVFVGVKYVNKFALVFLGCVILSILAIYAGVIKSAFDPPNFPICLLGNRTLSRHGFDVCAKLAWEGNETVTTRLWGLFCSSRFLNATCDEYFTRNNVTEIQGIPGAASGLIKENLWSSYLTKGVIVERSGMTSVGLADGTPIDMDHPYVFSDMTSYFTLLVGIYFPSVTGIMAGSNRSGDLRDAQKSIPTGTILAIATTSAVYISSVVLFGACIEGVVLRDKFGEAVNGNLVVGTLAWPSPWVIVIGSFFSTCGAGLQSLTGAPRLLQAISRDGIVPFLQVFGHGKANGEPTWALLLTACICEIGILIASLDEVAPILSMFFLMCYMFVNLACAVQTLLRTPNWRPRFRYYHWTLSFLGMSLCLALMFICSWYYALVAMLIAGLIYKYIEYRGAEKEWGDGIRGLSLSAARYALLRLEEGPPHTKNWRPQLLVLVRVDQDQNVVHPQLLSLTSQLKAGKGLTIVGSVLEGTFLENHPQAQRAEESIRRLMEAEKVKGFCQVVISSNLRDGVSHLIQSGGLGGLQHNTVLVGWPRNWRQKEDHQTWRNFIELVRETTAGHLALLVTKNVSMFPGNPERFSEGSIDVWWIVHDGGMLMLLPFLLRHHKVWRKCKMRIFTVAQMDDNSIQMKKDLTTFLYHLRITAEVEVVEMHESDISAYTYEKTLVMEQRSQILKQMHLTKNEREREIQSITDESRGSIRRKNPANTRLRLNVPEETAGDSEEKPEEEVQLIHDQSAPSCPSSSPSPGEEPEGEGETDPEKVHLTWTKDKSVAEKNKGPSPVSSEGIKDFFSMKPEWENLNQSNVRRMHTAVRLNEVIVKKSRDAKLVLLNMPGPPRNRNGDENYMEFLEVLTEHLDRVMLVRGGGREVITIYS
Procedure: Cell Culture and biotinylation. HEK-293 cells were purchased from ATCC (CRL-1573) and transfected with human KCC2 and GFP expression plasmids using Lipofectamine 2000. Cells were utilized for experimentation 48-72h following transfection. Cells were biotinylated at 4° C. using NHS-Biotin. Following lysis and purification on immobilized avidin beads, cell surface and total fractions were subject to immunoblotting as outlined previously (Conway et al., 2017, supra).
The reliability of the biotinylation procedure was assessed via immunoblotting with antibodies against the cytosolic protein actin. Actin was present in the total lysates but was absent from the surface fractions (FIG. 2C).

[1] = test system: PTZ induced motor seizures; assay: Pentylenetetrazol (PTZ) induced convulsions; format: in vivo, mice; settings: 12.5 mg/kg IV pretreatment

`C[C@@H]1CN(c2nc3c(c(Nc4ccc(C5CCCCC5)cc4)n2)COC3)CCO1` [Compound A, (R)—N-(4-cyclohexylphenyl)-2-(2-methylmorpholino)-5,7-dihydrofuro[3,4-d]pyrimidin-4-amine] was tested, and the “KCC2 on the plasma membrane (surface/total)” value (KCC2; 0.3 μM) was 94.5±8.4 % of control, the “KCC2 on the plasma membrane (surface/total)” value (KCC2; 3 μM) was 104.7±8.4 % of control and the “dose of PTZ required to induce forelimb clonus” value ([1]; Control=51.5±3.1) was 56.3 ± 3.3 mg/kg. For the same molecule, the “dose of PTZ required to induce hindlimb clonus” value ([1]; Control=84.5±5.1) was 137.4 ± 7.5 mg/kg.

— patent publication US20250281497A1, “FUSED AMINO PYRIMIDINE COMPOUNDS FOR TREATMENT OF SEIZURE DISORDERS” (Ovid Therapeutics Inc., priority 2024, published 2025)
